Laboratory results published in ChEMBL document CHEMBL1158670, “Mediation of the cytotoxicity of lanostanoids and steroids of Ganoderma tsugae through apoptosis and cell cycle” (J Nat Prod, 1998).
In brackets after ≈: the same amount, converted by molar mass. One block for each compound: values may come before it. Activity calls are given as the source filed them. The rule behind the calls is not given here.

What was measured:
[1] = Cell cycle arrest in human Hep3B cells by accumulation at subG1 phase at 24 ug/mL after 24 hrs by flow cytometry; type: functional, cell-based; conditions: Hep 3B2
[2] = Cell cycle arrest in human Hep3B cells by accumulation at G0/G1 phase at 35 ug/mL after 24 hrs by flow cytometry; type: functional, cell-based; conditions: Hep 3B2
[3] = Cell cycle arrest in human Hep3B cells by accumulation at G2/M phase at 50 ug/mL after 24 hrs by flow cytometry; type: functional, cell-based; conditions: Hep 3B2
[4] = Cell cycle arrest in human Hep3B cells by accumulation at S phase at 20 ug/mL after 24 hrs by flow cytometry; type: functional, cell-based; conditions: Hep 3B2
[5] = Cell cycle arrest in human Hep3B cells by accumulation at G2/M phase at 20 ug/mL after 24 hrs by flow cytometry; type: functional, cell-based; conditions: Hep 3B2
[6] = Cell cycle arrest in human Hep3B cells by accumulation at G0/G1 phase at 20 ug/mL after 24 hrs by flow cytometry; type: functional, cell-based; conditions: Hep 3B2
[7] = Cell cycle arrest in human Hep3B cells by accumulation at S phase at 35 ug/mL after 24 hrs by flow cytometry; type: functional, cell-based; conditions: Hep 3B2
[8] = Cell cycle arrest in human Hep3B cells by accumulation at G2/M phase after 24 hrs by flow cytometry; type: functional, cell-based, Hep 3B2
[9] = Cell cycle arrest in human Hep3B cells by accumulation at S phase at 100 ug/mL after 24 hrs by flow cytometry; type: functional, cell-based; conditions: Hep 3B2
[10] = Cell cycle arrest in human Hep3B cells by accumulation at G2/M phase at 35 ug/mL after 24 hrs by flow cytometry; type: functional, cell-based; conditions: Hep 3B2
[11] = Cell cycle arrest in human Hep3B cells by accumulation at G0/G1 phase at 100 ug/mL after 24 hrs by flow cytometry; type: functional, cell-based; conditions: Hep 3B2
[12] = Cell cycle arrest in human Hep3B cells by accumulation at G2/M phase at 100 ug/mL after 24 hrs by flow cytometry; type: functional, cell-based; conditions: Hep 3B2
[13] = Cell cycle arrest in human Hep3B cells by accumulation at G0/G1 phase at 50 ug/mL after 24 hrs by flow cytometry; type: functional, cell-based; conditions: Hep 3B2
[14] = Cell cycle arrest in human Hep3B cells by accumulation at S phase at 50 ug/mL after 24 hrs by flow cytometry; type: functional, cell-based; conditions: Hep 3B2

Compound: CC(=O)O[C@@H]1CC[C@]2(C)C3=C(CC[C@H]2C1(C)C)[C@]1(C)CC[C@H]([C@@H](CCC=C(C)C)C(=O)O[C@@H]2O[C@H](CO)[C@@H](O)[C@H](O)[C@H]2O)[C@@]1(C)CC3
Activity [1]: Active

IC50 [8]: 87.1 µg/mL (≈ 202 µM)
Compound: CC(C)[C@@H](C)/C=C/[C@@H](C)[C@H]1CC[C@H]2C3=CC[C@H]4C[C@H](O)[C@@H](O)C[C@]4(C)[C@@]3(O)CC[C@]12C
Activity [2]: 55.3%
Activity [3]: 9.2%
Activity [4]: 36.8%
Activity [5]: 12.6%
Activity [6]: 50.6%
Activity [7]: 35%
Activity [9]: 37%
Activity [10]: 9.8%
Activity [11]: 57.8%
Activity [12]: 5.2%
Activity [13]: 55.3%
Activity [14]: 35.5%
